Measurements from ChEMBL document CHEMBL1795255, “Discovery and optimization of potent and selective benzonaphthyridinone analogs as small molecule mTOR inhibitors with improved mouse microsome stability” (Bioorg Med Chem Lett, 2011).

Columns and labels:
[1] = Inhibition of PI3K-dependent Akt phosphorylation at T308 residue in human PC3 cells; type: cell-based; conditions: PC-3
[2] = molecular target: Serine/threonine-protein kinase mTOR (Mus musculus, UniProt Q9JLN9); test: Inhibition of mTOR-dependent S6K phosphorylation at T389 residue in MEF cells; type: cell-based
[3] = Inhibition of mTORC1
[4] = (§1) Cmax in po dosed mouse; type: ADME, organism-based; set-up: route oral; conditions: in vivo
[5] = (§2) Cmax in iv dosed mouse; type: ADME, organism-based; set-up: route intravenous; conditions: in vivo
[6] = (§3) Tmax in po dosed mouse; type: ADME, organism-based; conditions: in vivo
[7] = Clearance in iv dosed mouse; type: ADME, organism-based; conditions: in vivo
[8] = Metabolic stability in mouse microsomes in presence of NADPH; type: ADME, Microsome; conditions: read-out: Stability
CYP3A4 = CYP3A4 (Homo sapiens, UniProt P08684); test: Inhibition of CYP3A4 at 10 uM; type: ADME
[9] = Oral bioavailability in mouse; type: ADME, organism-based; conditions: in vivo
[10] = AUC (0 to infinity) in po dosed mouse; type: ADME, organism-based; set-up: route oral, time infinity; conditions: plasma
[11] = Half life in iv dosed mouse; type: ADME, organism-based; conditions: in vivo
[12] = AUC (0 to infinity) in iv dosed mouse; type: ADME, organism-based; set-up: time infinity, route intravenous; conditions: plasma
[13] = (§4) Volume of distribution at steady state in iv dosed mouse; type: ADME, organism-based; conditions: in vivo, read-out: Vdss
[14] = molecular target: T1, Serine/threonine-protein kinase mTOR (Homo sapiens, UniProt P42345); test: Inhibition of mTOR-dependent S6K phosphorylation at T389 residue in lung at 20 mg/kg after 6 hrs by in vivo pharmacodynamic study; type: organism-based; set-up: dose 20 mg/kg
[15] = molecular target: Phosphatidylinositol 3-kinase catalytic subunit type 3 (Homo sapiens, UniProt Q8NEB9); test: Inhibition of human VPS34
[16] = molecular target: Phosphatidylinositol 4-kinase alpha (Homo sapiens, UniProt P42356); test: Inhibition of PI4K alpha
[17] = molecular target: T1, Serine/threonine-protein kinase mTOR; test: Inhibition of mTOR-dependent AKT phosphorylation at S473 residue in lung at 20 mg/kg after 6 hrs by in vivo pharmacodynamic study; type: organism-based; set-up: dose 20 mg/kg
[18] = molecular target: T1, Serine/threonine-protein kinase mTOR; test: Inhibition of mTOR-dependent S6K phosphorylation at T389 residue in liver at 20 mg/kg after 6 hrs by in vivo pharmacodynamic study; type: organism-based; set-up: dose 20 mg/kg
[19] = molecular target: PI3-kinase p110-alpha/p85-alpha (Homo sapiens, UniProt P42336); test: Inhibition of P110alpha/p85alpha; type: protein-complex assay
[20] = molecular target: Phosphatidylinositol 4-kinase beta (Homo sapiens, UniProt Q9UBF8); test: Inhibition of PI4K beta
[21] = molecular target: Phosphatidylinositol 4-phosphate 3-kinase C2 domain-containing subunit alpha (Homo sapiens, UniProt O00443); test: Inhibition of PI3K C2alpha
[22] = molecular target: Phosphatidylinositol 4-phosphate 3-kinase C2 domain-containing subunit beta (Homo sapiens, UniProt O00750); test: Inhibition of PI3K C2beta
[23] = molecular target: T1, Serine/threonine-protein kinase mTOR; test: Inhibition of mTOR-dependent AKT phosphorylation at S473 residue in liver at 20 mg/kg after 6 hrs by in vivo pharmacodynamic study; type: organism-based; set-up: dose 20 mg/kg
[24] = molecular target: T1, Serine/threonine-protein kinase mTOR; test: Inhibition of mTOR
Mus musculus [25] = test: as §1; type: ADME, organism-based; set-up: route oral; conditions: in vivo
Mus musculus [26] = test: as §2; type: ADME, organism-based; set-up: route intravenous; conditions: in vivo
Mus musculus [27] = test: as §3; type: ADME, organism-based; conditions: in vivo
Mus musculus [28] = test: as §4; type: ADME, organism-based; conditions: in vivo

Sequence of CYP3A4 (P08684 whole entry): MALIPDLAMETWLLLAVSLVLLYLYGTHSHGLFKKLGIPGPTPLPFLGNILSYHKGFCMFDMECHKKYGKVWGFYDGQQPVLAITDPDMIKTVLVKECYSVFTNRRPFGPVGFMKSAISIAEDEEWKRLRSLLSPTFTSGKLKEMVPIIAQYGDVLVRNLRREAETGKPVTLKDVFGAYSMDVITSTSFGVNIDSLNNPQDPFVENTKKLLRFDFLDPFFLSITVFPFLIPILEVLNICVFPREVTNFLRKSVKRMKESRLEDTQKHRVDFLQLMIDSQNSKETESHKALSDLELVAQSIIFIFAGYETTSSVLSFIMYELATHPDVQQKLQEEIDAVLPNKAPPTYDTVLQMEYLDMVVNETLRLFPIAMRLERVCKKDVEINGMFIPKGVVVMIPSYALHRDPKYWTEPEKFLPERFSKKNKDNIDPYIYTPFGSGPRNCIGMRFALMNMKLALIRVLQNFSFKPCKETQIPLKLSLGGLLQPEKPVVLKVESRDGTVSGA
Sequence of Phosphatidylinositol 4-kinase beta (Q9UBF8 whole entry, the tested form may be a part): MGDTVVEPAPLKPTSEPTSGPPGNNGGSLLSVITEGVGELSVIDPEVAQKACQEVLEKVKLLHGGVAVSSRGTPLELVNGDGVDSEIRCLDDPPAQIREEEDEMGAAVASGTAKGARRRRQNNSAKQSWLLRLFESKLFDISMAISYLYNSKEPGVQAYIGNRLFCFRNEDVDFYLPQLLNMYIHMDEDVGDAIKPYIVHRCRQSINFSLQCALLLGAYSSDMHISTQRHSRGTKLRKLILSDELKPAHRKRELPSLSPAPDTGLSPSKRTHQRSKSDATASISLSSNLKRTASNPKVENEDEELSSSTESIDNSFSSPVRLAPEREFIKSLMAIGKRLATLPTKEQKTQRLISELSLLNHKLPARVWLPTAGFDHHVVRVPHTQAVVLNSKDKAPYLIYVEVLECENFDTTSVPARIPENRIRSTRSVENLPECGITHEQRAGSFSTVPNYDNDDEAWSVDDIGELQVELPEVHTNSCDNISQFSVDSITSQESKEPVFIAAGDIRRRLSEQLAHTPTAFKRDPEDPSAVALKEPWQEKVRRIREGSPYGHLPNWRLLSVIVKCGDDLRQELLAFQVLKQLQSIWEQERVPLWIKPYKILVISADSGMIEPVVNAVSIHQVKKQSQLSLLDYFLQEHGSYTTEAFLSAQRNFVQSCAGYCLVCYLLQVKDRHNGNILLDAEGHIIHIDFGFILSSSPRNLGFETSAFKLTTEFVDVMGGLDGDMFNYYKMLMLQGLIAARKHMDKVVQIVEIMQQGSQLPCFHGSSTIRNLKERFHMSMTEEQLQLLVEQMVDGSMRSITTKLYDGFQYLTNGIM
Sequence of PI3-kinase p110-alpha/p85-alpha (P27986 whole entry): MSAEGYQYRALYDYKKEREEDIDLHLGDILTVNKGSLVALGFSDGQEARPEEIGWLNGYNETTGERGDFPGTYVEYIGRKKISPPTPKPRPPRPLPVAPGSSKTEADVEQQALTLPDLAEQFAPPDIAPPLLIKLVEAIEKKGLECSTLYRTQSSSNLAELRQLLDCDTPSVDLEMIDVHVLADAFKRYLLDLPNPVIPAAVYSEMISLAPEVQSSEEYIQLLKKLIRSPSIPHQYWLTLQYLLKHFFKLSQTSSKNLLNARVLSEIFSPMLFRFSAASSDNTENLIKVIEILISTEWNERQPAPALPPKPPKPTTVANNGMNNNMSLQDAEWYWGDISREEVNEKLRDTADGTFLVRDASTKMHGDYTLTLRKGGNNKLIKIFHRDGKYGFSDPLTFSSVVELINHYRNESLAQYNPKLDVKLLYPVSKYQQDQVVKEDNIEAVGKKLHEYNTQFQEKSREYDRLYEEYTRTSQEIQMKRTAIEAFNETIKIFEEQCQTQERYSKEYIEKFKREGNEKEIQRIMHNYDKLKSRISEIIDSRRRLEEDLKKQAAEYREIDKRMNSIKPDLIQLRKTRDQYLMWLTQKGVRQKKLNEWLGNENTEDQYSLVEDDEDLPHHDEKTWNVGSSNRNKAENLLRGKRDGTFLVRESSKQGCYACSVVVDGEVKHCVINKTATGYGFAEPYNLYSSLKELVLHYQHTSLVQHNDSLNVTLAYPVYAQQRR
Sequence of PI3-kinase p110-alpha/p85-alpha (P42336 whole entry): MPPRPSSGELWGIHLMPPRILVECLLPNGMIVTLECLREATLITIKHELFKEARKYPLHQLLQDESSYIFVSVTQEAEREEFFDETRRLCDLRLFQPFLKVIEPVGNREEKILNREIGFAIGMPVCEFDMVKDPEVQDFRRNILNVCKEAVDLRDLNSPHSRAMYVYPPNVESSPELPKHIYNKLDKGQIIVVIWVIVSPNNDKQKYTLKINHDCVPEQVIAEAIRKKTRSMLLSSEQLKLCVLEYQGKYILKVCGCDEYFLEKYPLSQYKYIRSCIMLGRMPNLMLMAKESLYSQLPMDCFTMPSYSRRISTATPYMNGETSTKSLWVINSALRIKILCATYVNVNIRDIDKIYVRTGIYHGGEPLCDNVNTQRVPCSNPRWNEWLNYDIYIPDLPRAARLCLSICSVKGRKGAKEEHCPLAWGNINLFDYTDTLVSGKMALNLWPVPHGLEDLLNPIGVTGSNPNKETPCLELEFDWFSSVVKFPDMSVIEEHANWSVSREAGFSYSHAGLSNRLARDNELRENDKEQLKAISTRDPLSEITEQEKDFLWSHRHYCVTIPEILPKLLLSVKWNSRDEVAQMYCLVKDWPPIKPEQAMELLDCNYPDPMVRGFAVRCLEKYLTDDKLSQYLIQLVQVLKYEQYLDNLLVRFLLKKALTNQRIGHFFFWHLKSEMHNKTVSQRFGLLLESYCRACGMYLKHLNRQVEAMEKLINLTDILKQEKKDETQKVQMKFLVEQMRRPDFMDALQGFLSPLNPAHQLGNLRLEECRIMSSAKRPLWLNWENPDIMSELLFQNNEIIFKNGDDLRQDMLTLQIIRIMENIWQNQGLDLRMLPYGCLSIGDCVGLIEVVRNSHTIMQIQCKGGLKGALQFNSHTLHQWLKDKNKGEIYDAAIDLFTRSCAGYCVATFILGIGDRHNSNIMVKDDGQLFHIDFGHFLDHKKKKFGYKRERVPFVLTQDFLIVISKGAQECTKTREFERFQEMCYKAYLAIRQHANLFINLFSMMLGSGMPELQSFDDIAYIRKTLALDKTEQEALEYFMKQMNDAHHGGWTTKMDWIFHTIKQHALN
Sequence of Phosphatidylinositol 4-phosphate 3-kinase C2 domain-containing subunit alpha (O00443 whole entry, the tested form may be a part): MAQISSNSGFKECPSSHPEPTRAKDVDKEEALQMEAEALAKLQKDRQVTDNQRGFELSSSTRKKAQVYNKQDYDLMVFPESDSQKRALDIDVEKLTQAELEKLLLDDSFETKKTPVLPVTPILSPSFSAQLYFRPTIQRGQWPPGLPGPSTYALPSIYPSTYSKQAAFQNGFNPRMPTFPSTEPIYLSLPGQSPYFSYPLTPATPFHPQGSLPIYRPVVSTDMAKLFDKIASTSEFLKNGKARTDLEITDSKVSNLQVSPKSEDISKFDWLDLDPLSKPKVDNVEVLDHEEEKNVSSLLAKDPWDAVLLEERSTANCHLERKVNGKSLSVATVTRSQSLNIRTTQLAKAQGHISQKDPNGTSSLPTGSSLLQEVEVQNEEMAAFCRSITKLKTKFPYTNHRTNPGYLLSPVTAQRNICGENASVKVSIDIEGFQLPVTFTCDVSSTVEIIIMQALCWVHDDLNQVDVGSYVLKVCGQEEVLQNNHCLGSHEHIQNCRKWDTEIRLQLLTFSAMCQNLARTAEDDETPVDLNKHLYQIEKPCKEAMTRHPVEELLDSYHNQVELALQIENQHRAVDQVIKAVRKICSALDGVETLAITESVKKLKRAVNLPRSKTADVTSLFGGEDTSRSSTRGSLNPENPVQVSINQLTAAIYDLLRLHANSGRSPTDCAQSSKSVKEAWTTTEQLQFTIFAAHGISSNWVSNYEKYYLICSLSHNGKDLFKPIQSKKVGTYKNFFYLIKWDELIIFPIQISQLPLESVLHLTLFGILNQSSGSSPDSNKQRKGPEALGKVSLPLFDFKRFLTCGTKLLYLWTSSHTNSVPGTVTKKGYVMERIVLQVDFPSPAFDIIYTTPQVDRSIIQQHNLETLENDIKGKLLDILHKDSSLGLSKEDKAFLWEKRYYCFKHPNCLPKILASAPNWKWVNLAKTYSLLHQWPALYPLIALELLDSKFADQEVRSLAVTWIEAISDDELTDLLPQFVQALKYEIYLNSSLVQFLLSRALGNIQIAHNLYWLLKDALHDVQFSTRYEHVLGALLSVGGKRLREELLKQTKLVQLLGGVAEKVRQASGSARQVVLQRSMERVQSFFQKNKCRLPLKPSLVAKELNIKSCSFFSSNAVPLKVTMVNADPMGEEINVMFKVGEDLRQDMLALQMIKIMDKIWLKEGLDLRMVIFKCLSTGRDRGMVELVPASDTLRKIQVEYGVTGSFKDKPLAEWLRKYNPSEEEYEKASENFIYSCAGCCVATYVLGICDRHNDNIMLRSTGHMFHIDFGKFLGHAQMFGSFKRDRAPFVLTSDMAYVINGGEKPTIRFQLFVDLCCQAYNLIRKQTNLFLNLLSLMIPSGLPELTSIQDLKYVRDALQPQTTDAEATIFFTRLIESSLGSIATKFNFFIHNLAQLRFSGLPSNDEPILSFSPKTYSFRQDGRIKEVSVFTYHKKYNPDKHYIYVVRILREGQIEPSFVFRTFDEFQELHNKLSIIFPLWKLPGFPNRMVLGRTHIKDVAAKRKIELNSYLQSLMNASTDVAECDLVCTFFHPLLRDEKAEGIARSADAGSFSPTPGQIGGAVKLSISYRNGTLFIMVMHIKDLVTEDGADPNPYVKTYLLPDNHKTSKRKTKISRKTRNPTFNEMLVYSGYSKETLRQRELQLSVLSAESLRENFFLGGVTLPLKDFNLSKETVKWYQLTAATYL

Compound `Cc1cc(-n2c(=O)ccc3cnc4ccc(-c5cnc6[nH]ccc6c5)cc4c32)ccc1-c1ccc(C(=O)NC2CCN(C)CC2)cc1` has an EC50 [1] of 1000 nM, an EC50 [2] of 25 nM and an IC50 [3] of 18.9 nM.

Compound `CN1CCC(NC(=O)c2ccc(-c3ccc(-n4c(=O)ccc5cnc6ccc(-c7cn[nH]c7)cc6c54)cc3C(F)(F)F)cc2)CC1` has an EC50 [1] of 1000 nM, an EC50 [2] of 10 nM and an IC50 [3] of 14.1 nM.

`Cc1cc(-n2c(=O)ccc3cnc4ccc(-c5cnc6ccccc6c5)cc4c32)ccc1-c1ccc(C(=O)NC2CCN(C)CC2)cc1` gave a Cmax [4] of 115 ng/mL, an EC50 [1] of 1000 nM and a Cmax [5] of 1050 ng/mL. It also gave an EC50 [2] of 1 nM, a Tmax [6] of 1 h and a clearance [7] of 22.6 mL/min/kg. The half-life [8] was 0.7 h, the IC50 [3] was 14.5 nM and the inhibition at 10 µM (CYP3A4) was 34%. It also gave a bioavailability [9] of 5.4%, an AUC(0-inf) [10] of 391 ng·h/mL and a half-life [11] of 1.85 h. For the same compound, the AUC(0-inf) [12] was 737 ng·h/mL and the Vd [13] was 1.82 L/kg.

Work on `CN1CCC(NC(=O)c2ccc(-c3ccc(-n4c(=O)ccc5cnc6ccc(-c7cnc8ccccc8c7)cc6c54)cc3C(F)(F)F)cc2)CC1` yielded a Cmax [4] of 191 ng/mL, a Cmax [5] of 1410 ng/mL and an EC50 [2] of 5 nM. It also gave a Tmax [6] of 4 h, a clearance [7] of 11.9 mL/min/kg and an inhibition [14] of 80%. The IC50 [15] was 170 nM, the IC50 [16] was > 10000 nM and the half-life [8] was 0.767 h. The IC50 [3] was 21.7 nM, the inhibition at 10 µM (CYP3A4) was 61% and the inhibition [17] was 80%. For the same compound, the bioavailability [9] was 10.1%, the inhibition [18] was 80% and the AUC(0-inf) [10] was 1410 ng·h/mL. For the same compound, the IC50 [19] was 922 nM, the IC50 [20] was 3440 nM and the IC50 [21] was 1110 nM. It also gave an IC50 [22] of 437 nM, a half-life [11] of 3.61 h and an AUC(0-inf) [12] of 1390 ng·h/mL. The inhibition [23] was 80%, the IC50 [24] was 3.01 nM and the Vd [13] was 1.95 L/kg.

In the case of `Cc1cc(-n2c(=O)ccc3cnc4ccccc4c32)ccc1-c1ccc(C(=O)NC2CCN(C)CC2)cc1`, the EC50 [1] is reported as > 1250 nM, the EC50 [2] is reported as > 1000 nM and the IC50 [3] is reported as > 3000 nM.

For `Cc1cc(-n2c(=O)ccc3cnc4ccc(-c5cnn(C)c5)cc4c32)ccc1-c1ccc(C(=O)NC2CCN(C)CC2)cc1`, the EC50 [1] was > 1250 nM, the EC50 [2] was 150 nM and the IC50 [3] was 283 nM.

In the case of `NC(=O)c1ccc(-c2ccc(-n3c(=O)ccc4cnc5ccc(-c6cnc7ccccc7c6)cc5c43)cc2C(F)(F)F)cc1`, the EC50 [1] is reported as > 300 nM, the EC50 [2] is reported as 25 nM and the IC50 [3] is reported as 56.3 nM.

With `O=c1ccc2cnc3ccc(-c4cnc5ccccc5c4)cc3c2n1-c1ccc(-c2ccc(CO)cc2)c(C(F)(F)F)c1` the EC50 [1] was > 300 nM, the EC50 [2] was 30 nM and the IC50 [3] was 17.3 nM.

For `O=c1ccc2cnc3ccc(-c4cnc5ccccc5c4)cc3c2n1-c1ccc(-c2ccc(COC3CCCCO3)cc2)c(C(F)(F)F)c1` (stereo not drawn), the EC50 [1] was > 300 nM, the EC50 [2] was 25 nM and the IC50 [3] was 188 nM.

For `CNC(=O)c1ccc(-c2ccc(-n3c(=O)ccc4cnc5ccc(-c6cnc7ccccc7c6)cc5c43)cc2C(F)(F)F)cc1`, the EC50 [1] was > 300 nM, the EC50 [2] was 15 nM and the IC50 [3] was 10.2 nM.

`CN1CCC(NC(=O)c2ccc(-c3ccc(-n4c(=O)ccc5cnc6ccc(-c7cnc(N)nc7)cc6c54)cc3C(F)(F)F)cc2)CC1` showed an EC50 [1] of 1000 nM, an EC50 [2] of 10 nM and an IC50 [3] of 43.2 nM.

With `Cc1cc(-n2c(=O)ccc3cnc4ccc(-c5cn[nH]c5)cc4c32)ccc1-c1ccc(C(=O)NC2CCN(C)CC2)cc1` the EC50 [1] was > 1250 nM, the EC50 [2] was 150 nM and the IC50 [3] was 38.1 nM.

In the case of `O=C(O)c1ccc(-c2ccc(-n3c(=O)ccc4cnc5ccc(-c6cnc7ccccc7c6)cc5c43)cc2C(F)(F)F)cc1`, the EC50 [1] is reported as > 300 nM, the EC50 [2] is reported as 20 nM and the IC50 [3] is reported as 22.9 nM.

For `Cc1cc(-n2c(=O)ccc3cnc4ccc(-c5ccc(N)nc5)cc4c32)ccc1-c1ccc(C(=O)NC2CCN(C)CC2)cc1`, the EC50 [1] was > 1250 nM, the EC50 [2] was 50 nM and the IC50 [3] was 39.8 nM.

Compound `CCC(=O)N1CCN(c2ccc(-n3c(=O)ccc4cnc5ccc(-c6cnc7ccccc7c6)cc5c43)cc2C(F)(F)F)CC1` [TORIN1] has a Cmax (Mus musculus [25]) of 223 ng/mL, a Cmax (Mus musculus [26]) of 2757 ng/mL and a Tmax (Mus musculus [27]) of 0.25 h. For the same compound, the AUC(0-inf) [10] was 396 ng·h/mL, the AUC(0-inf) [12] was 720 ng·h/mL and the Vdss (Mus musculus [28]) was 0.59 L/kg.

For `COC(=O)c1ccc(-c2ccc(-n3c(=O)ccc4cnc5ccc(-c6cnc7ccccc7c6)cc5c43)cc2C(F)(F)F)cc1`, the EC50 [1] was > 300 nM, the EC50 [2] was 200 nM and the IC50 [3] was 299 nM.
